molecular target: T1, 5-HT transporter (Rattus norvegicus, UniProt P31652); test: Inhibition of 5-HT uptake in rat brain synaptosomes; format: biochemical; settings: Table III; rat, 1 μM
T1 construct: synaptosomes of rat brain areas are freshly isolated; from tissue; host or cells: rat brain synaptosomes (P2 fraction) from marrow and pons
T1 sequence (P31652 whole entry): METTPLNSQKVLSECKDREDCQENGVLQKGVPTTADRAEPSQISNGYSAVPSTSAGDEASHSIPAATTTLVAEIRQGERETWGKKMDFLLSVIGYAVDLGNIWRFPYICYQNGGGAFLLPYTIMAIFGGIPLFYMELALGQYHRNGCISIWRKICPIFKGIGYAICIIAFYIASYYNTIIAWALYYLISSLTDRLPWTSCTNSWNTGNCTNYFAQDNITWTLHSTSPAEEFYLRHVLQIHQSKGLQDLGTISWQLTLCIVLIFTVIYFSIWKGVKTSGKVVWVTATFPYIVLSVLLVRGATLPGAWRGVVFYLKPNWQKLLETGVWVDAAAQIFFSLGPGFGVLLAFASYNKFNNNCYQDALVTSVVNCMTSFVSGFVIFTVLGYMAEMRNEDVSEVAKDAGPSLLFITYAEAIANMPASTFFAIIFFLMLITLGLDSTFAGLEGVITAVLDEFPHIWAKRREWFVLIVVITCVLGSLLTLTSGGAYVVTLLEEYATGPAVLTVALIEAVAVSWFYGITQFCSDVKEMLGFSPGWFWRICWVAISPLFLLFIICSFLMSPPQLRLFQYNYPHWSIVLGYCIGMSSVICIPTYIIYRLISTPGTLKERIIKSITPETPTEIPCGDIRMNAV

| Compound | Uptake 5-HT, rat, 1 μM, % inhibition [%] |
| --- | --- |
| CC(=O)OC(C(=O)N1CCC2(CC1)NCC(=O)N2Cc1cccc(C#N)c1)c1ccccc1 (stereo not shown) [Example 284, Ethyl 2-[1-(3-cyanobenzyl)-2-oxo-1,4,8-triazaspiro[4,5]dec-8-yl]-2-oxo-1-phenylacetate] | 51 |
| CC(=O)Nc1ccc(C(=O)N2CCC3(CC2)NC(CC(C)C)C(=O)N3CCCCOC(C)=O)cc1 (stereo not shown) [Example 255, Butyl 4-[8-(4-acetylaminobenzoyl)-3-isobutyl-2-oxo-1,4,8-triazaspiro[4,5]dec-1-yl]acetate] | 44 |

same assay, conditions: characteristic data of the 5-HT transporter, rat synaptosomes

| Compound | Km [µM] |
| --- | --- |
| NCCc1c[nH]c2ccc(O)cc12 [Example 5-HT, reference compound] | 0.084 ± 0.011 |

same assay, conditions: read-out: Uptake 5-HT, % inhibition; Table III; rat, 1 μM

| inhibition at 1 µM [%] | Compound |
| --- | --- |
| 30 | CC(C)=CCN1C(=O)C(C(C)C)NC12CCN(C(=O)c1c(-c3c(F)cccc3Cl)noc1C)CC2 (stereo not shown) [Example 233, 8-[3-(2-Chloro-6-fluorophenyl)-5-methylisoxazole-4-carbonyl]-3-isopropyl-1-(3-methylbut-2-enyl)-1,4,8-triazaspiro[4,5]decan-2-one] |
| 30 | Cc1ccc(Cl)c(C(=O)N2CCC3(CC2)NC(Cc2ccccc2)C(=O)N3C)c1F (stereo not shown) [Example 224, 3-Benzyl-8-(6-chloro-2-fluoro-3-methylbenzoyl)-1-methyl-1,4,8-triazaspiro[4,5]decan-2-one] |
| 53 | COCCOCC(=O)N1CCC2(CC1)NC(CCSC)C(=O)N2Cc1ccccc1C#N (stereo not shown) [Example 114, 2-[8-[2-(2-Methoxyethoxy)acetyl]-3-(2-methylsulfanylethyl)-2-oxo-1,4,8-triazaspiro[4,5]dec-1-ylmethyl]benzonitrile] |
| 30 | CN1C(=O)C(Cc2ccccc2)NC12CCN(C(=O)c1ccc(C(F)(F)F)c(F)c1)CC2 (stereo not shown) [Example 191, 3-Benzyl-8-(3-fluoro-4-trifluoromethylbenzoyl)-1-methyl-1,4,8-triazaspiro[4,5]decan-2-one] |
| 40 | CCCCN1C(=O)C(CCSC)NC12CCN(C(=O)COCc1ccccc1)CC2 (stereo not shown) [Example 159, 8-(2-Benzyloxyacetyl)-1-butyl-3-(2-methylsulfanylethyl)-1,4,8-triazaspiro[4,5]decan-2-one] |
| 62 | CSCCC1NC2(CCN(C(=O)c3cccnc3Oc3ccccc3)CC2)N(Cc2ccccc2)C1=O (stereo not shown) [Example 171, 1-Benzyl-3-(2-methylsulfanylethyl)-8-(2-phenoxypyridin-3-carbonyl)-1,4,8-triazaspiro[4,5]decan-2-one] |
| 32 | COC(=O)c1ccc(CN2C(=O)C(C(C)C)NC23CCN(C(=O)c2cccnc2SC)CC3)cc1 (stereo not shown) [Example 194, Methyl 4-[3-isopropyl-8-(2-methylsulfanylpyridin-3-carbonyl)-2-oxo-1,4,8-triazaspiro[4,5]dec-1-ylmethyl]benzoate] |
| 64 | CC(C)C1NC2(CCN(C(=O)c3cccnc3Cl)CC2)N(Cc2ccccc2)C1=O (stereo not shown) [Example 157, 1-Benzyl-8-(2-chloropyridin-3-carbonyl)-3-isopropyl-1,4,8-triazaspiro[4,5]decan-2-one] |
| 43 | C#CCN1C(=O)C(Cc2ccccc2)NC12CCN(C(=O)COC)CC2 (stereo not shown) [Example 81, 3-Benzyl-8-(2-methoxyacetyl)-1-prop-2-ynyl-1,4,8-triazaspiro[4,5]decan-2-one] |
| 56 | CC(C)=CCN1C(=O)C(C(C)C)NC12CCN(C(=O)c1ccncc1)CC2 (stereo not shown) [Example 87, 3-Isopropyl-1-(3-methylbut-2-enyl)-8-(pyridin-4-carbonyl)-1,4,8-triazaspiro[4,5]decan-2-one] |
| 53 | CC(C)C1NC2(CCN(C(=O)c3cccc(SC(F)F)c3)CC2)N(Cc2ccccc2)C1=O (stereo not shown) [Example 192, 1-Benzyl-8-(3-difluoromethylsulfanylbenzoyl)-3-isopropyl-1,4,8-triazaspiro[4,5]decan-2-one] |
| 36 | Cc1cc(C(=O)N2CCC3(CC2)NC(Cc2ccccc2)C(=O)N3C)no1 (stereo not shown) [Example 239, 3-Benzyl-1-methyl-8-(5-methylisoxazole-3-carbonyl)-1,4,8-triazaspiro[4,5]decan-2-one] |
| 71 | CSCCC1NC2(CCN(C(=O)c3cccnc3Oc3ccccc3)CC2)N(Cc2ccccc2F)C1=O (stereo not shown) [Example 163, 1-(2-Fluorobenzyl)-3-(2-methylsulfanylethyl)-8-(2-phenoxypyridin-3-carbonyl)-1,4,8-triazaspiro[4,5]decan-2-one] |
| 50 | CCOC(=O)CN1C(=O)C(CCSC)NC12CCN(C(=O)CC)CC2 (stereo not shown) [Example 263, Ethyl [3-(2-methylsulfanylethyl)-2-oxo-8-propionyl-1,4,8-triazaspiro[4,5]dec-1-yl]acetate] |
| 34 | COC(=O)c1ccc(CN2C(=O)CNC23CCN(C(=O)c2cccnc2SC)CC3)cc1 [Example 254, Methyl 4-[8-(2-methylsulfanylpyridin-3-carbonyl)-2-oxo-1,4,8-triazaspiro[4,5]dec-1-ylmethyl]benzoate] |
| 56 | C#CCN1C(=O)C(CCSC)NC12CCN(C(=O)C1CCC1)CC2 (stereo not shown) [Example 152, 8-Cyclobutanecarbonyl-3-(2-methylsulfanylethyl)-1-prop-2-ynyl-1,4,8-triazaspiro[4,5]decan-2-one] |
| 49 | COc1cccc(C(=O)N2CCC3(CC2)NCC(=O)N3Cc2ccccc2F)c1 [Example 311, 1-(2-Fluorobenzyl)-8-(3-methoxybenzoyl)-1,4,8-triazaspiro[4,5]decan-2-one] |
| 43 | CCCCN1C(=O)C(Cc2ccccc2)NC12CCN(C(=O)COC)CC2 (stereo not shown) [Example 190, 3-Benzyl-1-butyl-8-(2-methoxyacetyl)-1,4,8-triazaspiro[4,5]decan-2-one] |
| 33 | CC(C)(C)CC(=O)N1CCC2(CC1)NC(=O)C(Cc1ccccc1)N2 (stereo not shown) [Example 110, 3-Benzyl-8-(3,3-dimethylbutyryl)-1,4,8-triazaspiro[4,5]decan-2-one] |
| 73 | COC(=O)c1ccc(CN2C(=O)CNC23CCN(C(=O)c2cccnc2Cl)CC3)cc1 [Example 252, Methyl 4-[8-(2-chloropyridin-3-carbonyl)-2-oxo-1,4,8-triazaspiro[4,5]dec-1-ylmethyl]benzoate] |
| 47 | CSCCC1NC2(CCN(C(=O)c3cccc4ccccc34)CC2)N(C)C1=O (stereo not shown) [Example 187, 1-Methyl-3-(2-methylsulfanylethyl)-8-(naphthalin-1-carbonyl)-1,4,8-triazaspiro[4,5]decan-2-one] |
| 39 | C=CCN1C(=O)C(CCSC)NC12CCN(C(=O)C(=O)OCC)CC2 (stereo not shown) [Example 261, Ethyl 2-[1-allyl-3-(2-methylsulfanylethyl)-2-oxo-1,4,8-triazaspiro[4,5]dec-8-yl]-2-oxo-acetate] |
| 51 | C#CCN1C(=O)C(Cc2ccccc2)NC12CCN(C(=O)c1snnc1C)CC2 (stereo not shown) [Example 244, 3-Benzyl-8-(4-methyl[1,2,3]thiadiazole-5-carbonyl)-1-prop-2-ynyl-1,4,8-triazaspiro[4,5]decan-2-one] |
| 64 | O=C1NC2(CCN(C(=O)c3ccccc3Cl)CC2)NC1Cc1ccccc1 (stereo not shown) [Example 84, 3-Benzyl-8-(2-chlorobenzoyl)-1,4,8-triazaspiro[4,5]decan-2-one] |
| 46 | COc1ccc(C(=O)N2CCC3(CC2)NC(CCSC)C(=O)N3C)c(OC)c1 (stereo not shown) [Example 67, 8-(2,4-Dimethoxybenzoyl)-1-methyl-3-(2-methylsulfanylethyl)-1,4,8-triazaspiro[4,5]decan-2-one] |

— patent US7951815B2, “Substituted 1,4,8-triazaspiro [4,5]decan-2-one compounds” (Gruenenthal GmbH, priority 2004, dated 2011)
